Measurements as given in ChEMBL document CHEMBL1201862, “PubChem BioAssay data set” (2004).
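Where inhibition never reached the appropriate level, the endpoint shown equals the highest concentration tested. Otherwise, values were interpolated linearly from a five-concentration, 48-hour dose response in 96-well plates. Abbreviation: GI50, concentration required for 50% inhibition of growth.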 Active and inactive are the calls of the source. Cut-off read from the data, not from the text of the source: active = GI50 up to about 1.1 µM and inactive = higher.

Assays:
Test in all cases: NCI anticancer screen, dose series, 48 h
SN12C = system: SN12C
OVCAR-4 = system: OVCAR-4
NCI-H522 = system: NCI-H522
DLD-1 = system: DLD-1
UACC-257 = system: UACC-257
SK-OV-3 = system: SK-OV-3
SNB-19 = system: SNB-19
TK-10 = system: TK-10
DMS-273 = system: DMS-273
CCRF-CEM = system: CCRF-CEM
HCC 2998 = system: HCC 2998
M14 = system: M14
UACC-62 = system: UACC-62
SNB-75 = system: SNB-75
SK-MEL-28 = system: SK-MEL-28
SF-268 = system: SF-268
HOP-18 = system: HOP-18
A498 = system: A498
COLO 205 = system: COLO 205
HCT-15 = system: HCT-15
IGROV-1 = system: IGROV-1
A549 = system: A549
XF498 = system: XF498
NCI-H460 = system: NCI-H460
HT-29 = system: HT-29
M19-MEL = system: M19-MEL
U-251 = system: U-251
KM-20L2 = system: KM-20L2
LOX IMVI = system: LOX IMVI
EKVX = system: EKVX
SF-295 = system: SF-295
NCI-H23 = system: NCI-H23
HL-60 = system: HL-60
LXFL 529 = system: LXFL 529
CAKI-1 = system: CAKI-1
RXF 631 = system: RXF 631
SF-539 = system: SF-539
NCI-H226 = system: NCI-H226
Malme-3M = system: Malme-3M
KM12 = system: KM12
SK-MEL-5 = system: SK-MEL-5
786-0 = system: 786-0
SR = system: SR
HOP-92 = system: HOP-92
K562 = system: K562
HCT-116 = system: HCT-116
RXF 393 = system: RXF 393
OVCAR-8 = system: OVCAR-8
HOP-62 = system: HOP-62
MOLT-4 = system: MOLT-4
UO-31 = system: UO-31
ACHN = system: ACHN
SNB-78 = system: SNB-78
SK-MEL-2 = system: SK-MEL-2
OVCAR-3 = system: OVCAR-3
OVCAR-5 = system: OVCAR-5
SW-620 = system: SW-620
RPMI-8226 = system: RPMI-8226
DMS-114 = system: DMS-114

Compound: O=C1C2=C(CC3C(C2)C3(Br)Br)C(=O)C2=C1CC1C(C2)C1(Br)Br (stereo not drawn)
- GI50 (SN12C): > 100 µM (inactive)
- GI50 (OVCAR-4): > 100 µM (inactive)
- GI50 (NCI-H522): 34.6 µM (inactive)
- GI50 (DLD-1): > 100 µM (inactive)
- GI50 (UACC-257): > 100 µM (inactive)
- GI50 (SK-OV-3): > 100 µM (inactive)
- GI50 (SNB-19): > 100 µM (inactive)
- GI50 (TK-10): > 100 µM (inactive)
- GI50 (DMS-273): > 100 µM (inactive)
- GI50 (CCRF-CEM): 61.9 µM (inactive)
- GI50 (HCC 2998): > 100 µM (inactive)
- GI50 (M14): > 100 µM (inactive)
- GI50 (UACC-62): > 100 µM (inactive)
- GI50 (SNB-75): > 100 µM (inactive)
- GI50 (SK-MEL-28): > 100 µM (inactive)
- GI50 (SF-268): > 100 µM (inactive)
- GI50 (HOP-18): > 100 µM (inactive)
- GI50 (A498): > 100 µM (inactive)
- GI50 (COLO 205): > 100 µM (inactive)
- GI50 (HCT-15): > 100 µM
- GI50 (IGROV-1): > 100 µM (inactive)
- GI50 (A549): > 100 µM (inactive)
- GI50 (XF498): > 100 µM (inactive)
- GI50 (NCI-H460): > 100 µM (inactive)
- GI50 (HT-29): > 100 µM (inactive)
- GI50 (M19-MEL): 52.8 µM (inactive)
- GI50 (U-251): > 100 µM (inactive)
- GI50 (KM-20L2): > 100 µM (inactive)
- GI50 (LOX IMVI): 82.4 µM (inactive)
- GI50 (EKVX): > 100 µM (inactive)
- GI50 (SF-295): > 100 µM (inactive)
- GI50 (NCI-H23): > 100 µM (inactive)
- GI50 (HL-60): > 100 µM (inactive)
- GI50 (LXFL 529): > 100 µM (inactive)
- GI50 (CAKI-1): > 100 µM (inactive)
- GI50 (RXF 631): > 100 µM (inactive)
- GI50 (SF-539): > 100 µM (inactive)
- GI50 (NCI-H226): > 100 µM (inactive)
- GI50 (Malme-3M): > 100 µM (inactive)
- GI50 (KM12): > 100 µM (inactive)
- GI50 (SK-MEL-5): > 100 µM (inactive)
- GI50 (786-0): > 100 µM (inactive)
- GI50 (SR): > 100 µM (inactive)
- GI50 (HOP-92): > 100 µM (inactive)
- GI50 (K562): > 100 µM (inactive)
- GI50 (HCT-116): > 100 µM (inactive)
- GI50 (RXF 393): > 100 µM (inactive)
- GI50 (OVCAR-8): > 100 µM (inactive)
- GI50 (HOP-62): > 100 µM (inactive)
- GI50 (MOLT-4): > 100 µM (inactive)
- GI50 (UO-31): > 100 µM (inactive)
- GI50 (ACHN): > 100 µM (inactive)
- GI50 (SNB-78): > 100 µM (inactive)
- GI50 (SK-MEL-2): > 100 µM (inactive)
- GI50 (OVCAR-3): > 100 µM (inactive)
- GI50 (OVCAR-5): > 100 µM (inactive)

Compound: Cc1cc(C)c(C2[C@H]3C(=O)N(c4ccc(Cc5ccc(N6C(=O)[C@@H]7ON(c8ccccc8)C(c8c(C)cc(C)cc8C)[C@@H]7C6=O)cc5)cc4)C(=O)[C@H]3ON2c2ccccc2)c(C)c1 (stereo partly drawn)
- GI50 (SN12C): > 100 µM (inactive)
- GI50 (OVCAR-4): > 100 µM (inactive)
- GI50 (NCI-H522): > 100 µM (inactive)
- GI50 (DLD-1): > 100 µM (inactive)
- GI50 (UACC-257): > 100 µM (inactive)
- GI50 (SK-OV-3): > 100 µM (inactive)
- GI50 (SNB-19): > 100 µM (inactive)
- GI50 (TK-10): > 100 µM (inactive)
- GI50 (DMS-273): > 100 µM (inactive)
- GI50 (CCRF-CEM): > 100 µM (inactive)
- GI50 (HCC 2998): > 100 µM (inactive)
- GI50 (M14): > 100 µM (inactive)
- GI50 (UACC-62): > 100 µM (inactive)
- GI50 (SNB-75): > 100 µM (inactive)
- GI50 (SW-620): > 100 µM (inactive)
- GI50 (SK-MEL-28): > 100 µM (inactive)
- GI50 (SF-268): > 100 µM (inactive)
- GI50 (HOP-18): > 100 µM (inactive)
- GI50 (A498): > 100 µM (inactive)
- GI50 (COLO 205): > 100 µM (inactive)
- GI50 (HCT-15): > 100 µM
- GI50 (IGROV-1): > 100 µM (inactive)
- GI50 (A549): > 100 µM (inactive)
- GI50 (NCI-H460): > 100 µM (inactive)
- GI50 (HT-29): > 100 µM (inactive)
- GI50 (M19-MEL): > 100 µM (inactive)
- GI50 (U-251): > 100 µM (inactive)
- GI50 (KM-20L2): > 100 µM (inactive)
- GI50 (LOX IMVI): > 100 µM (inactive)
- GI50 (EKVX): > 100 µM (inactive)
- GI50 (SF-295): > 100 µM (inactive)
- GI50 (NCI-H23): > 100 µM (inactive)
- GI50 (HL-60): 46.3 µM (inactive)
- GI50 (LXFL 529): > 100 µM (inactive)
- GI50 (CAKI-1): 57.9 µM (inactive)
- GI50 (RXF 631): > 100 µM (inactive)
- GI50 (SF-539): > 100 µM (inactive)
- GI50 (NCI-H226): > 100 µM (inactive)
- GI50 (RPMI-8226): > 100 µM (inactive)
- GI50 (Malme-3M): > 100 µM (inactive)
- GI50 (KM12): > 100 µM (inactive)
- GI50 (SK-MEL-5): > 100 µM (inactive)
- GI50 (786-0): > 100 µM (inactive)
- GI50 (SR): > 100 µM (inactive)
- GI50 (K562): > 100 µM (inactive)
- GI50 (HCT-116): > 100 µM (inactive)
- GI50 (RXF 393): 44.1 µM (inactive)
- GI50 (OVCAR-8): > 100 µM (inactive)
- GI50 (DMS-114): > 100 µM (inactive)
- GI50 (HOP-62): > 100 µM (inactive)
- GI50 (MOLT-4): > 100 µM (inactive)
- GI50 (UO-31): > 100 µM (inactive)
- GI50 (ACHN): > 100 µM (inactive)
- GI50 (SNB-78): > 100 µM (inactive)
- GI50 (SK-MEL-2): > 100 µM (inactive)
- GI50 (OVCAR-3): > 100 µM (inactive)
- GI50 (OVCAR-5): > 100 µM (inactive)
